# Assay results: US11180423B2, “Compositions and methods for micronutrient introduction” (CHS INC., priority 2014, dated 2021)
# Assays:
# [1] = system: Zea mays (variety DKC 43-48); test: 2012 Corn Trial—St. Cloud, Minn.; type: in vivo; details: in furrow, compared to untreated controls
# Protocol: A corn trial utilizing a composition of the instant disclosure was performed in St. Cloud, Minn., in 2012. In this example, the composition comprised ortho-ortho EDDHA as the exemplary ligand.
# In this example, Zea mays (variety DKC 43-48) seeds were planted on May 15, 2012. Soil moisture was normal and the seed bed was compacted. The tillage type was conventional till. The treated crop area for the instant example was 300 square feet (ft^2). The study design was randomized complete block (RCB) with four replications.
# Corn plants were harvested on Oct. 10, 2012. Thereafter, the yield of corn plants administered the composition comprising ortho-ortho EDDHA was compared to the yield of control corn plants that were untreated.
# [2] = system: glycine max (variety PB0954RR) soybean; test: 2013 Soybean Trial—St. Cloud, Minn.; type: in vivo; details: compared to untreated controls
# Protocol: A soybean trial utilizing a composition of the instant disclosure was performed in St. Cloud, Minn., in 2013. In this example, the composition comprised ortho-ortho EDDHA as the exemplary ligand.
# In this example, glycine max (variety PB0954RR) soybean seeds were planted on Jun. 17, 2013. The tillage type was conventional till. The treated crop area for the instant example was 300 square feet (ft^2). The study design was randomized complete block (RCB) with four replications.
# Soybean plants were harvested on Oct. 11, 2013. Thereafter, yield of soybean plants administered the composition comprising ortho-ortho EDDHA was compared to the yield of control soybean plants that were untreated.
# [3] = system: corn seeds; test: 2013 Corn Seed Trial—Brookings, S. Dak.; type: in vivo; details: corn seed treatment; compared to untreated controls
# Protocol: A corn seed trial utilizing a composition of the instant disclosure was performed in Brookings, S. Dak., in 2013. In this example, the composition comprised ortho-ortho EDDHA as the exemplary ligand (i.e., “WC101”). The study design was randomized complete block (RCB) with four replications. […] [table] Plot unit sizes were approximately 10 feet by 40 feet according to the disclosed layout of FIG. 9.
# [4] = system: corn; test: 2014 Corn Trial—Scandia, Kans.; type: in vivo; details: starter fertilizer treatment groups; for yield response (effect in words): FIG. 1, Table 8, improvement especially for groups without micronutrients (10-34-0, 9-18-9)
# Protocol: A corn trial utilizing a composition of the instant disclosure was performed near Scandia, Kans., in 2014. In this example, the composition comprised ortho-ortho EDDHA as the exemplary ligand (i.e., “WC101”).
# In this example, corn was planted on May 2, 2014. Treatments were applied as starter applications at planting with an application volume of 6 gpa. Weed control was completed as needed to keep weed free with maintenance sprays.
# Data collected included yield (bu/acre), test weight, moisture, preliminary soil analysis, and plant tissue and grain analysis. Grain yield was measured harvesting the two center rows with a plot combine. Total phosphorus (P) content in plant tissue was measured for the ear leaf and grain P concentration was measured after harvest with grain analysis for total P content.
# Fertilizer treatment mixes were completed before application. […] Although treatment application was complicated in some instances, the rates and placement for the instant example were believed to be within acceptable parameters. Grain yield was measured harvesting the two center rows with a plot combine. Total phosphorus (P) content in plant tissue was measured for the ear leaf and grain P concentration was measured after harvest with grain analysis for total P content.
# [5] = system: corn variety Pioneer 8640 Roundup Ready; test: 2013 Corn Trial—Casselton, N. Dak.; type: in vivo; details: compared to untreated controls
# [6] = Visual observations of fertilizer treatment mixes; type: physicochemical; details: various fertilizers, for instance 9-18-9
# [7] = system: corn variety Dekalb 45-51; test: 2013 Corn Trial—Brookings, S. Dak.; type: in vivo; details: compared to untreated controls
# Protocol: A corn trial utilizing a composition of the instant disclosure was performed near Brookings, S. Dak., in 2013. In this example, the composition comprised ortho-ortho EDDHA as the exemplary ligand.
# In this example, corn variety Dekalb 45-51 was planted on May 14, 2013. Corn was planted to a population of 32,000 plants per acre, and a 30-inch row spacing was used. The soil type was Brandt silty clay loam.
# Corn plants were harvested on Oct. 24, 2013. Thereafter, the yield of corn plants administered the composition comprising ortho-ortho EDDHA was compared to the yield of control corn plants that were untreated.
compound,measurement,setting,value
O=C(O)C(NCCNC(C(=O)O)c1ccccc1O)c1ccccc1O (stereo not shown) [ortho-ortho EDDHA],yield increase,[1],8.5 bushels per acre
same,yield increase,[2],5.1 bushels per acre
same,emergence increase,[3],3.5%
same,yield increase,[3],1.4 bushels per acre
same,yield response (effect in words),[4]; listed as WC101,improvement
same,yield response (effect in words),[4]; listed as ligand,statistically significant effect
same,"plant tissue phosphorus (P) response, ear leaf (effect in words)","[4]; FIG. 2, Table 8, listed as WC101",improvement
same,"plant tissue phosphorus (P) response, ear leaf (effect in words)","[4]; FIG. 2, Table 8, listed as ligand",statistically significant effect
same,grain P removal response (effect in words),"[4]; FIG. 3, Table 8, listed as WC101",improvement
same,grain P removal response (effect in words),"[4]; FIG. 3, Table 8, listed as ligand",statistically significant effect
same,yield increase,[5],4.6 bushels per acre
same,compatibility with fertilizers in treatment mixes,[6],possible compatibility issues
same,yield increase,[7],8.2 bushels per acre
